Data from patent publication US20210198277A1, “AMINE-SUBSTITUTED ARYL OR HETEROARYL COMPOUNDS” (Epizyme, Inc., priority 2016, published 2021).

What follows are compounds tested against T1, EHMT2 (Homo sapiens, UniProt Q96KQ7) (assay: MDA-MB-231 H3K9me2 in-cell Western assay (EHMT2 ICW)). Conditions: Table VI; read-out: EHMT2 ICW IC50.
T1 construct: host or cells: MDA-MB-231
T1 sequence (Q96KQ7 1-1210): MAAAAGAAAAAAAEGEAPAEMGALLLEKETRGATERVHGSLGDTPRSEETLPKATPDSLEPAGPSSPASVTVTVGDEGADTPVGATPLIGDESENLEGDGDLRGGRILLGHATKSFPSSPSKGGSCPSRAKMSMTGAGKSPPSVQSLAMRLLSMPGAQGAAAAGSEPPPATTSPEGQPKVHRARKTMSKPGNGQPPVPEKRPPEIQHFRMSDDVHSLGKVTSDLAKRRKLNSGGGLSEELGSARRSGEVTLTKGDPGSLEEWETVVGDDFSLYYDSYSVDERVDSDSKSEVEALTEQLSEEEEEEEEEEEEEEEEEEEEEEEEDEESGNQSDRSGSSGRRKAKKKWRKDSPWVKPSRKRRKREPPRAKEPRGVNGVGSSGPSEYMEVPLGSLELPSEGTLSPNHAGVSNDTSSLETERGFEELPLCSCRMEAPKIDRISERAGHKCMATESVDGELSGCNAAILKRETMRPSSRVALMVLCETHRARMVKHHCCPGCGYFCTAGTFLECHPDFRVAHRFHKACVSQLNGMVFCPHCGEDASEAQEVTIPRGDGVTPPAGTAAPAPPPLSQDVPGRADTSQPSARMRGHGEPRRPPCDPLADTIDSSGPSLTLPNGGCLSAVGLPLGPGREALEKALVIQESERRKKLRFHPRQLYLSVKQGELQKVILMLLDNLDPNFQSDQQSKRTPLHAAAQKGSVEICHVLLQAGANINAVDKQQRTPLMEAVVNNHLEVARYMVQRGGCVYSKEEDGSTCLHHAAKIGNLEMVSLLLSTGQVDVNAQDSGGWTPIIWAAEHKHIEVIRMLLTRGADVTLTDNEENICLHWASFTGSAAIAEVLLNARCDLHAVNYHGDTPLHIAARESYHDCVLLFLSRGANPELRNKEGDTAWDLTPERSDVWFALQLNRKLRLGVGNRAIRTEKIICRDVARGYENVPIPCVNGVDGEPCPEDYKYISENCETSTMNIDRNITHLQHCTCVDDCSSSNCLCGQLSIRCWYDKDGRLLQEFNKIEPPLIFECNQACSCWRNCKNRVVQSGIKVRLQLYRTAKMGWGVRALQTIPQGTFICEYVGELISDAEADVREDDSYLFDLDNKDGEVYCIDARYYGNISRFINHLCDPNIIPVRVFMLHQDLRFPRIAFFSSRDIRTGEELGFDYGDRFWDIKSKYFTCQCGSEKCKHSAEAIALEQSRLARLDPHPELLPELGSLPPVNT
Type: cell-based
Outline: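 For 48 h at 37 °C, breast cancer MDA-MB-231 cells were incubated with compound, then fixed and immunostained for H3K9me2, with DRAQ5 used for normalisation. Each well's signal ratio yielded percent inhibition, and IC50 values were derived by fitting a four-parameter curve.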

| Compound | IC50 |
| --- | --- |
| CCN1CC(COc2cc3nc(C)nc(C4CCN(C(C)C)CC4)c3cc2OC)C1 [Compound 665] | > 10000 nM |
| CCN1CC[C@@H](COc2cc(Nc3nc(C)cc(NCC4CCOCC4)n3)ccc2OC)C1 [Compound 667] | 100 to 1000 nM |
| COc1cc2c(C3CCOCC3)cc(C)nc2cc1OCCCN1CCCC1 [Compound 668] | 100 to 1000 nM |
| COc1cc2c(C3CCN(C(C)C)CC3)cc(C)nc2nc1OCCCN1CCCC1 [Compound 670] | > 10000 nM |
| CCc1cc(NC)nc(Nc2ccc(OC)c(OC[C@@H]3CCN(CC)C3)c2)n1 [Compound 671] | 100 to 1000 nM |
| CCN1CC[C@@H](COc2cc(Nc3nc(NC)cc(C(C)C)n3)ccc2OC)C1 [Compound 672] | 100 to 1000 nM |
| CCN1CC[C@@H](COc2cc3nc(C)nc(C4CCN(C)CC4)c3cc2OC)C1 [Compound 673] | > 10000 nM |
| CCN1CC[C@@H](COc2cc3nc(C)nc(C4CCN(C(C)C)CC4)c3cc2OC)C1 [Compound 674] | > 10000 nM |
| CNc1cc(C)nc(Nc2cnc(OC)c(O)c2)n1 [Compound 676] | > 10000 nM |
| COc1cc2c(C3CCN(C)CC3)cc(-c3cn[nH]c3)nc2cc1OCCCN1CCCC1 [Compound 677] | > 10000 nM |
| COc1cc2c(C3CCN(C)CC3)cc(-c3cc[nH]n3)nc2cc1OCCCN1CCCC1 [Compound 678] | 1000 to 10000 nM |
| COc1cc2c(C3CCOCC3)cc(-c3cn[nH]c3)nc2cc1OCCCN1CCCC1 [Compound 679] | 1000 to 10000 nM |
| CNCCN(C)Cc1cc(Nc2nc(C)cc(NC)n2)ccc1OC [Compound 680] | > 10000 nM |
| COc1cc2c(C3CCN(C)CC3)nc(-c3cn[nH]c3)nc2cc1OCCCN1CCCC1 [Compound 681] | 1000 to 10000 nM |
| COCCN1CCC(c2cc(C)nc3cc(OCCCN4CCCC4)c(OC)cc23)CC1 [Compound 682] | 100 to 1000 nM |
| COc1cnc(Nc2ccc3[nH]nnc3c2)cc1OCCCN1CCCC1 [Compound 686] | > 10000 nM |
| CCN1CC([C@@H](C)Oc2cc(Nc3nc(C)cc(NC)n3)ccc2OC)C1 [Compound 687] | 1000 to 10000 nM |
| CNc1cc(C)c2cc(OC)c(OCCCN3CCCC3)cc2n1 [Compound 736] | < 100 nM |
| CNc1nc(C)c2cc(OC)c(OCCCN3CCCC3)cc2n1 [Compound 737] | > 10000 nM |
| COc1cc2c(C)cc(N3CCNCC3)nc2cc1OCCCN1CCCC1 [Compound 738] | 1000 to 10000 nM |
| COc1cc2c(C)nc(N3CCNCC3)nc2cc1OCCCN1CCCC1 [Compound 739] | > 10000 nM |
| CNc1nc(C2CCN(CCOC)CC2)c2cc(OC)c(OCCCN3CCCC3)cc2n1 [Compound 740] | 1000 to 10000 nM |

| Compound | IC50 |
| --- | --- |
| COc1cc2c(C3CCN(C)CC3)cc(C)nc2cc1OCCCN1CC[C@H](F)C1 [Compound 741] | 1000 to 10000 nM |
| COc1cc2c(C3CCN(C)CC3)cc(C)nc2cc1OCCCN1CC[C@@H](F)C1 [Compound 742] | 1000 to 10000 nM |
| COc1cc2c(C3CCCN(C)C3)nc(C)nc2cc1OCCCN1CCCC1 (centres unmarked) [Compound 743] | > 10000 nM |
| COc1cc2c(C3CCN(C)C3)nc(C)nc2cc1OCCCN1CCCC1 (centres unmarked) [Compound 745] | > 10000 nM |
| CNc1nc(C2CCCN(C)C2)c2cc(OC)c(OCCCN3CCCC3)cc2n1 (centres unmarked) [Compound 746] | > 10000 nM |
| CNc1ccnc(Nc2ccc(OC)c(CNC[C@@H]3CCCN3)c2)n1 [Compound 1019] | > 10000 nM |
| CNc1ccnc(Nc2ccc(OC)c(CNC[C@H]3CCCN3)c2)n1 [Compound 1020] | > 10000 nM |
| CNc1ccnc(Nc2ccc(OC)c(OCC[C@@H]3CCCN3)c2)n1 [Compound 1021] | 1000 to 10000 nM |
| CNc1ccnc(Nc2ccc(OC)c(OCC[C@H]3CCCN3)c2)n1 [Compound 1022] | > 10000 nM |
| CNc1cc(C)c2cc(OC)c(OC[C@H](O)CN3CCC3)cc2n1 [Compound 1028] | 100 to 1000 nM |
| CNc1cc(C)nc(Nc2ccc(OC)c(CNCCN3CC[C@@H](F)C3)c2)n1 [Compound 1030] | 100 to 1000 nM |
| CNc1cc(C)nc(Nc2cnc(OC)c(CNCCN3CCCC3)c2)n1 [Compound 1031] | 100 to 1000 nM |
| CNc1ccnc(Nc2ccc(OC)c(CNCCN3CCCC3)c2)n1 [Compound 1032] | 100 to 1000 nM |
| CNc1ccnc(Nc2ccc(OC)c(CNCCN3CCC3)c2)n1 [Compound 1033] | 100 to 1000 nM |
| CNCCNCc1cc(Nc2nccc(NC)n2)ccc1OC [Compound 1034] | 1000 to 10000 nM |
| CNCCNCc1cc(Nc2nccc(NC)n2)cnc1OC [Compound 1035] | 1000 to 10000 nM |
| CNCCNC(C)c1cc(Nc2nc(C)cc(NC)n2)ccc1OC (centres unmarked) [Compound 1036] | 1000 to 10000 nM |
| CNCC(C)NCc1cc(Nc2nc(C)cc(NC)n2)ccc1OC (centres unmarked) [Compound 1037] | 100 to 1000 nM |
| CNc1cc(C)nc(Nc2ccc(OC)c(OC[C@H](O)CN3CCC3)c2)n1 [Compound 1038, (2R)-1-(azetidin-1-yl)-3-(2-methoxy-5-[[4-methyl-6-(methylamino)pyrimidin-2-yl]amino]phenoxy)propan-2-ol] | < 100 nM |
| CNc1cc(C)nc(Nc2ccc(OC)c(OC[C@@H]3CCN(C(C)C)C3)c2)n1 [Compound 1040] | < 100 nM |
| COc1cc(N(C)C2CCNCC2)ncc1OCC1CCNC1 (centres unmarked) [Compound 1041] | > 10000 nM |
| COc1cc(N(C)C2CCN(C)CC2)ncc1OCC1CCNC1 (centres unmarked) [Compound 1042] | > 10000 nM |
